# Values of other authors in patent publication US7049092B1 (priority 1999, dated 2006).
# Molecular target: hormone-sensitive lipase
# Conditions: read-out: IC50 (concentration producing 50% inhibition)
smiles,measurement,value
"[Cl][Hg][Cl] [HgCl2 (mercuric chloride), mercuric chloride]",IC50,11 µM
